Experimental data taken from the supplement of paper PMC10307832.

Legend:
Experiment in all cases: relative viability (nuclei count vs DMSO), 5 days (fraction); higher = more cells survive
[1] = compound: COc1cc2nccc(Oc3ccc(NC(=O)C4(C(=O)Nc5ccc(F)cc5)CC4)cc3)c2cc1OC [Cabozantinib] + CC(=O)Nc1cccc(-n2c(=O)n(C3CC3)c(=O)c3c(Nc4ccc(I)cc4F)n(C)c(=O)c(C)c32)c1 [Trametinib] (partner 0.02 µM)
How it was run: (§1)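 Lung cancer cell lines were pin-tool dosed in 1536-well plates on the day after seeding, with either a lone drug or a fixed anchor-drug dose plus five library-drug doses (not always all listed) in √10 steps. Nuclei were counted on 4× images after 5 days. Relative viability is the ratio of treated-well to vehicle-well nuclei counts, with each value a median of duplicate plates.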

Cabozantinib + Olaparib = compound: COc1cc2nccc(Oc3ccc(NC(=O)C4(C(=O)Nc5ccc(F)cc5)CC4)cc3)c2cc1OC [Cabozantinib] + O=C(c1cc(Cc2n[nH]c(=O)c3ccccc23)ccc1F)N1CCN(C(=O)C2CC2)CC1 [Olaparib] (partner 8 µM)
How it was run: as §1

Kobe2602 + Alpelisib = compound: C1=CC(=CC=C1NC(=S)NNC2=C(C=C(C=C2[N+](=O)[O-])C(F)(F)F)[N+](=O)[O-])F [Kobe2602] + Cc1nc(NC(=O)N2CCC[C@H]2C(N)=O)sc1-c1ccnc(C(C)(C)C(F)(F)F)c1 [Alpelisib] (partner 2 µM)
How it was run: as §1

Zosuquidar + Lapatinib = compound: O[C@@H](COc1cccc2ncccc12)CN1CCN([C@@H]2c3ccccc3[C@@H]3[C@H](c4ccccc42)C3(F)F)CC1 [Zosuquidar] + CS(=O)(=O)CCNCc1ccc(-c2ccc3ncnc(Nc4ccc(OCc5cccc(F)c5)c(Cl)c4)c3c2)o1 [Lapatinib] (partner 2 µM)
How it was run: as §1

| Cell Line | relative viability ([1]; first compound 0.02 µM) | relative viability ([1]; first compound 0.06325 µM) | relative viability ([1]; first compound 0.2 µM) | relative viability ([1]; first compound 0.6325 µM) | relative viability ([1]; first compound 2 µM) | relative viability (Cabozantinib + Olaparib; first compound 0.02 µM) | relative viability (Cabozantinib + Olaparib; first compound 0.06325 µM) | relative viability (Cabozantinib + Olaparib; first compound 0.2 µM) | relative viability (Cabozantinib + Olaparib; first compound 0.6325 µM) | relative viability (Cabozantinib + Olaparib; first compound 2 µM) | relative viability (Kobe2602 + Alpelisib; first compound 0.2 µM) | relative viability (Kobe2602 + Alpelisib; first compound 0.6325 µM) | relative viability (Kobe2602 + Alpelisib; first compound 2 µM) | relative viability (Kobe2602 + Alpelisib; first compound 6.325 µM) | relative viability (Kobe2602 + Alpelisib; first compound 20 µM) | relative viability (Zosuquidar + Lapatinib; first compound 0.01 µM) | relative viability (Zosuquidar + Lapatinib; first compound 0.03162 µM) | relative viability (Zosuquidar + Lapatinib; first compound 0.1 µM) | relative viability (Zosuquidar + Lapatinib; first compound 0.3162 µM) | relative viability (Zosuquidar + Lapatinib; first compound 1 µM) |
| --- | --- | --- | --- | --- | --- | --- | --- | --- | --- | --- | --- | --- | --- | --- | --- | --- | --- | --- | --- | --- |
| NCI-H1993 | 0.508 | 0.531 | 0.526 | 0.436 | 0.571 | 1.03 | 0.975 | 0.75 | 0.785 | 0.981 | 0.67 | 0.844 | 0.591 | 0.669 | 0.666 | 0.965 | 0.908 | 0.751 | 1.04 | 0.79 |
| NCI-H2009 | 0.276 | 0.281 | 0.293 | 0.275 | 0.24 | 0.718 | 0.71 | 0.703 | 0.712 | 0.762 | 1.12 | 1.22 | 1.13 | 1.3 | 1.18 | 0.931 | 0.905 | 0.891 | 1.09 | 0.849 |
| NCI-H2023 | 0.497 | 0.707 | 0.445 | 0.381 | 0.293 | 0.483 | 0.545 | 0.383 | 0.429 | 0.433 | 0.561 | 0.58 | 0.588 | 0.516 | 0.498 | 0.848 | 0.856 | 0.712 | 1.45 | 0.955 |
| NCI-H2085 | 0.876 | 0.6 | 0.571 | 0.463 | 0.398 | 0.842 | 0.805 | 0.786 | 0.781 | 0.776 | 1.04 | 0.99 | 0.894 | 1.01 | 1.05 | 0.796 | 0.754 | 0.475 | 0.826 | 0.778 |
| NCI-H2087 | 0.166 | 0.258 | 0.216 | 0.195 | 0.209 | 0.702 | 0.643 | 0.622 | 0.523 | 0.605 | 1.27 | 1.08 | 1.09 | 1.11 | 1.03 | 0.931 | 0.776 | 1.06 | 1.19 | 1.19 |
| NCI-H2126 | 0.534 | 0.594 | 0.568 | 0.589 | 0.578 | 0.937 | 0.932 | 0.865 | 0.938 | 0.946 | 0.688 | 0.817 | 0.726 | 0.735 | 0.806 | 0.75 | 0.753 | 0.639 | 0.755 | 0.733 |
| NCI-H2170 | 0.927 | 0.921 | 0.896 | 0.922 | 0.95 | 0.66 | 0.682 | 0.538 | 0.576 | 0.684 | 0.807 | 0.86 | 0.794 | 0.726 | 0.772 | 0.256 | 0.282 | 0.256 | 0.308 | 0.283 |
| NCI-H2228 | 0.4 | 0.61 | 0.594 | 0.704 | 0.479 | 0.769 | 0.924 | 0.742 | 0.602 | 0.573 | 0.724 | 0.712 | 0.747 | 0.713 | 0.776 | 1.2 | 0.937 | 0.956 | 1.06 | 1.21 |
